Data set [1] concerns the target T1, taurine transporter (TauT) (Homo sapiens, UniProt P31641).
T1 sequence (P31641 1-620): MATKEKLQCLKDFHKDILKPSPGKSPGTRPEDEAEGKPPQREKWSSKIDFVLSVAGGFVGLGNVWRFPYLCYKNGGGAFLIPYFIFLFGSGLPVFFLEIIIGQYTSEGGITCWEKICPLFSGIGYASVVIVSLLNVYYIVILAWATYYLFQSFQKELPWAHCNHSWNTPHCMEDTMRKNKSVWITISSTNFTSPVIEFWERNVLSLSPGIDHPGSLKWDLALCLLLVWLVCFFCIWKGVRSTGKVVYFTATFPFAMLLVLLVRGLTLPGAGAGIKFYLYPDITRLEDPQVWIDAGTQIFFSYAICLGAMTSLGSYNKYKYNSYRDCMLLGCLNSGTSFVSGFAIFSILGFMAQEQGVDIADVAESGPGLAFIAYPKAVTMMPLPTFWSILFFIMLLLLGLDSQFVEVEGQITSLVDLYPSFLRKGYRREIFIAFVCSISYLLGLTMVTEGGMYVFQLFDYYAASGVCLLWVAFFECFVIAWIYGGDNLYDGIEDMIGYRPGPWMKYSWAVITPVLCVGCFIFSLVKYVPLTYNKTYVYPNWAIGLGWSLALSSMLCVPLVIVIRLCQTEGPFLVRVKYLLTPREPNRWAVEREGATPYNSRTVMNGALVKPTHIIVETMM
As to the kind of experiment: cryo-EM structure. Type of data set: cell-based.

Substrate in data set [2]: NCCS(=O)(=O)O
Description: cells, lysate or membranes. The note with it: Na+ and Cl- central pocket. The format is cell-based, Homo sapiens.

Numbering of substitutions follows the chain as printed. Names and notes keep the numbering of the source.

In data set [1], `NCCCC(=O)O` [GABA] displayed an IC50 of 1300 µM.

B1: taurine transporter (TauT) (Homo sapiens; F58A) (protein)
chain: T1 sequence (P31641 1-620) with F58A
As for B1, the Km in data set [2] came to 166.2 µM.

The IC50 is the point on the concentration scale where inhibition reaches its midpoint. A high value points to weaker potency in that assay. One may read the Km as the concentration of substrate that gives half-maximal velocity.
